This is an account of results in patent publication US20040082662A1, “Polyisoprenylbenzophenone derivatives, processes for their preparation and use thereof” (Aventis Pharma Deutschland Gmbh, priority 2002, published 2004).

In series [1] the test system is HIV. To be noted: cited from earlier work.
The test system of series [2] is certain bee-pathogenic bacteria. To be noted: cited from earlier work.
The nature of series [3]: Stability (physicochemical properties). The settings on record: neutral and acidic medium. The source says: (§1) Stable in neutral and acidic medium.
The nature of series [4]: Solubility (physicochemical properties).
Text: as §1

In series [5] the test system is Staphylococcus aureus. The experiment in a line: Test of the antibacterial activity (agar plate, antibiotic test sheets, inhibition halo). It counts as cell-based. To be noted: 16 hours at 37° C. As for the experimental part: For the test of the antibacterial action, agar plates containing 2 ml of Staphylococcus aureus sowing in 200 ml of agar solution were firstly prepared. Makandechamone was applied in a 1 mg/ml solution to antibiotic test sheets (Schleicher and Schüll) having a diameter of 6 mm and placed on the agar plate. The inoculated Staphylococcus plates were incubated for 16 hours at 37° C. Inhibition halos having the following diameters (mm) were then observed: […]

In the case of guttiferone F, the HIV-inhibitory action result in series [1] is “HIV-inhibitory action”.
As to chamone I, the “Activity against certain bee-pathogenic bacteria” value in series [2] is listed as “active”.
Turning to nemorosome II, the “Activity against certain bee-pathogenic bacteria” value in series [2] is recorded as “active”.
On to `C=C1CC(C)(C)CCC1CC12CC(CC=C(C)C)C(C)(C)C(C(=O)c3ccccc3)(C1=O)C(O)=C(CC=C(C)C)C2=O` (stereo not drawn) [makandechamone], for which, in series [3], the Stability result is reported as “Stable”. Besides, in series [4] (medium polar and polar organic solvents), the “Solubility in medium polar and polar organic solvents” value is on record as “soluble”. Moreover, the Solubility in water entry in series [4] (water) was “not very soluble”. For the same compound, the Inhibition halo size in series [5] (10 μl of 1 mg/ml solution on 6 mm test sheet) came to 7 mm; in series [5] (20 μl of 1 mg/ml solution on 6 mm test sheet) it was 12 mm; in series [5] (40 μl of 1 mg/ml solution on 6 mm test sheet) it was 14 mm.
